# From patent US7560468B2, “Substituted 1,4,8-triazaspiro[4,5]decan-2-one compounds” (Gruenenthal GmbH, priority 2004, dated 2009)
# Biological target: T1, 5-HT transporter (Rattus norvegicus, UniProt P31652)
# T1 construct: from tissue; host or cells: rat brain synaptosomes (marrow/medulla and pons), P2 fraction
# Assay: Inhibition of 5-HT uptake in synaptosomes
# Type: biochemical
# Details: rat, 1 μM
# T1 sequence (P31652 whole entry): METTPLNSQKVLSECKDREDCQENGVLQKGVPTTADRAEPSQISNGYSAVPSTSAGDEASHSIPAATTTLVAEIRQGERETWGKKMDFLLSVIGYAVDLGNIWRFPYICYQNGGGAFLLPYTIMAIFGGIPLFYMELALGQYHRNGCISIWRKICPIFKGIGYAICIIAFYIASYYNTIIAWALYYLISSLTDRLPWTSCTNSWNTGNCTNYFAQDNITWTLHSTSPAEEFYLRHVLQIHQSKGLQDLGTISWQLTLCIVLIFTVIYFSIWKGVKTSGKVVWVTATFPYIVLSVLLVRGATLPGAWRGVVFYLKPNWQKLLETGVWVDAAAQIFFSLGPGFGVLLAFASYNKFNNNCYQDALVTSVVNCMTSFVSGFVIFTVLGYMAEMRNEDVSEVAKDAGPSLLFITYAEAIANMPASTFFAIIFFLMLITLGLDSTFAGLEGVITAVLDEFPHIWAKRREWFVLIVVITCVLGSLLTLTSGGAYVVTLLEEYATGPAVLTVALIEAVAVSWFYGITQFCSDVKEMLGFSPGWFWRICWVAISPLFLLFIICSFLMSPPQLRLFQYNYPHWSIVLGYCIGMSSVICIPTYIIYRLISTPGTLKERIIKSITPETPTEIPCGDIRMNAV
row,Compound,"Uptake_5-HT, rat, 1 μM, % inhibition"
1,"C=CCN1C(=O)C(C(C)C)NC12CCN(C(=S)Nc1c(F)c(F)c(F)c(F)c1F)CC2 (centres unmarked) [Example 149, 1-Allyl-3-isopropyl-2-oxo-1,4,8-triazaspiro[4,5]decan-8-thiocarboxylic acid pentafluorobenzolamide-amide]",55%
2,"CN1C(=O)C(Cc2ccccc2)NC12CCN(S(=O)(=O)c1cccc(Cl)c1)CC2 (centres unmarked) [Example 40, 3-Benzyl-8-(3-chlorobenzolsulfonyl)-1-methyl-1,4,8-triazaspiro[4,5]decan-2-one]",57%

# Same assay, conditions: read-out: Uptake_5-HT, rat, 1 μM, % inhibition
row,Compound,inhibition at 1 µM
1,"CC(C)NC(=S)N1CCC2(CC1)NC(=O)C(Cc1ccccc1)N2 (centres unmarked) [Example 103, 2-Benzyl-3-oxo-1,4,8-triazaspiro[4,5]decan-8-thiocarboxylic acid isopropylamide]",41%
2,"CCS(=O)(=O)N1CCC2(CC1)NC(CCSC)C(=O)N2Cc1ccccc1 (centres unmarked) [Example 32, 1-Benzyl-8-ethanesulfonyl-3-(2-methylsulfanylethyl)-1,4,8-triazaspiro[4,5]decan-2-one]",64%
3,"CSCCC1NC2(CCN(C(=S)NC(C)C)CC2)N(Cc2ccc(F)cc2)C1=O (centres unmarked) [Example 176, 1-(4-Fluorobenzyl)-3-(2-methylsulfanylethyl)-2-oxo-1,4,8-triazaspiro[4,5]decan-8-thiocarboxylic acid isopropylamide]",32%
4,"CN(C)S(=O)(=O)N1CCC2(CC1)NCC(=O)N2Cc1ccccc1F [Example 55, 1-(2-Fluorobenzyl)-2-oxo-1,4,8-triazaspiro[4,5]decan-8-sulfonic acid dimethylamide]",57%

# Test system: batrachotoxin (BTX) binding site of the sodium channel
# Assay: Affinity to the batrachotoxin (BTX) binding site of the sodium channel
# Details: rat cerebrocortex synaptosomes, [3H]-batrachotoxinin A20 α-benzoate 10 nM; test concentration not given
row,Compound,BTX Inhibition
1,"C=CCN1C(=O)C(C(C)C)NC12CCN(C(=O)Nc1cc(F)ccc1F)CC2 (centres unmarked) [Example 209, 1-Allyl-3-isopropyl-2-oxo-1,4,8-triazaspiro[4,5]decan-8-carboxylic acid (2,5-difluorobenzol)amide]",31
2,"CSCCC1NC2(CCN(C(=S)NC(C)c3ccccc3)CC2)N(Cc2ccc(F)cc2)C1=O (centres unmarked) [Example 196, 1-(4-Fluorobenzyl)-3-(2-methylsulfanylethyl)-2-oxo-1,4,8-triazaspiro[4,5]decan-8-thiocarboxylic acid (1-benzol-ethyl)amide]",70
3,"C=CCNC(=S)N1CCC2(CC1)NC(C(C)C)C(=O)N2Cc1ccc(C(=O)OC)cc1 (centres unmarked) [Example 126, Methyl 4-(8-allylthiocarbamoyl-3-isopropyl-2-oxo-1,4,8-triazaspiro[4,5]dec-1-ylmethyl)benzoate]",37
4,"CC(C)C1NC2(CCN(C(=S)NCc3ccccc3)CC2)N(Cc2ccccc2)C1=O (centres unmarked) [Example 199, 1-Benzyl-3-isopropyl-2-oxo-1,4,8-triazaspiro[4,5]decan-8-thiocarboxylic acid benzylamide]",44
5,"CSCCC1NC2(CCN(C(=S)NCc3ccc(Cl)cc3)CC2)N(Cc2cccc(C#N)c2)C1=O (centres unmarked) [Example 185, 1-(3-Cyanobenzyl)-3-(2-methylsulfanylethyl)-2-oxo-1,4,8-triazaspiro[4,5]decan-8-thiocarboxylic acid 4-chlorobenzylamide]",72
6,"COc1ccc(S(=O)(=O)N2CCC3(CC2)NCC(=O)N3Cc2ccccc2F)cc1 [Example 64, 1-(2-Fluorobenzyl)-8-(4-methoxy-benzolsulfonyl)-1,4,8-triazaspiro[4,5]decan-2-one]",42
7,"CCCCN1C(=O)C(CCSC)NC12CCN(C(=S)NCc1ccccc1OC)CC2 (centres unmarked) [Example 127, 1-Butyl-3-(2-methylsulfanylethyl)-2-oxo-1,4,8-triazaspiro[4,5]decan-8-thiocarboxylic acid (2-methoxy-benzol)amide]",44
8,"CSCCC1NC2(CCN(C(=S)NCc3ccc(F)cc3)CC2)N(C)C1=O (centres unmarked) [Example 134, 1-Methyl-3-(2-methylsulfanylethyl)-2-oxo-1,4,8-triazaspiro[4,5]decan-8-thiocarboxylic acid 4-fluorobenzylamide]",50
9,"CCCCN1C(=O)C(C(C)C)NC12CCN(S(=O)(=O)c1ccc(F)cc1F)CC2 (centres unmarked) [Example 19, 1-Butyl-8-(2,4-difluorobenzolsulfonyl)-3-isopropyl-1,4,8-triazaspiro[4,5]decan-2-one]",30
10,"CSCCC1NC2(CCN(C(=O)NCc3ccc(Cl)c(Cl)c3)CC2)N(Cc2ccc(F)cc2)C1=O (centres unmarked) [Example 228, 1-(4-Fluorobenzyl)-3-(2-methylsulfanylethyl)-2-oxo-1,4,8-triazaspiro[4,5]decan-8-carboxylic acid 3,4-dichlorobenzylamide]",87
11,"COc1ccc(CNC(=S)N2CCC3(CC2)NC(CCSC)C(=O)N3C)cc1 (centres unmarked) [Example 111, 1-Methyl-3-(2-methylsulfanylethyl)-2-oxo-1,4,8-triazaspiro[4,5]decan-8-thiocarboxylic acid 4-methoxy-benzylamide]",51
12,"Cc1cc(S(=O)(=O)N2CCC3(CC2)NC(CC(C)C)C(=O)N3Cc2ccccc2)c(C)cc1Cl (centres unmarked) [Example 27, 1-Benzyl-8-(4-chloro-2,5-dimethylbenzolsulfonyl)-3-isobutyl-1,4,8-triazaspiro[4,5]decan-2-one]",59
13,"1-Methyl-3-(2-methylsulfanylethyl)-2-oxo-1,4,8-triazaspiro[4,5]decan-8-thiocarboxylic acid (3-trifluoromethylbenzol)amide [Example 194]",36
14,"CC(C)CC1NC2(CCN(C(=O)Nc3cc(F)ccc3F)CC2)N(Cc2ccccc2C#N)C1=O (centres unmarked) [Example 218, 1-(2-Cyanobenzyl)-3-isobutyl-2-oxo-1,4,8-triazaspiro[4,5]decan-8-carboxylic acid (2,5-difluorobenzol)amide]",40
15,"O=C1C(Cc2ccccc2)NC2(CCN(C(=S)NCc3ccc(Cl)cc3)CC2)N1Cc1ccccc1F (centres unmarked) [Example 197, 3-Benzyl-1-(2-fluorobenzyl)-2-oxo-1,4,8-triazaspiro[4,5]decan-8-thiocarboxylic acid 4-chlorobenzylamide]",77
16,"CSCCC1NC2(CCN(C(=S)NCc3ccc(Cl)cc3)CC2)N(C)C1=O (centres unmarked) [Example 133, 1-Methyl-3-(2-methylsulfanylethyl)-2-oxo-1,4,8-triazaspiro[4,5]decan-8-thiocarboxylic acid (4-chlorobenzol)amide]",44
17,"CC(=O)c1cccc(NC(=S)N2CCC3(CC2)NC(CC(C)C)C(=O)N3Cc2ccccc2C#N)c1 (centres unmarked) [Example 141, 1-(2-Cyanobenzyl)-3-isobutyl-2-oxo-1,4,8-triazaspiro[4,5]decan-8-thiocarboxylic acid (3-acetylbenzol)amide]",50
18,"C#CCN1C(=O)C(CC(C)C)NC12CCN(C(=S)Nc1c(Cl)cccc1Cl)CC2 (centres unmarked) [Example 190, 3-Isobutyl-2-oxo-1-prop-2-ynyl-1,4,8-triazaspiro[4,5]decan-8-thiocarboxylic acid (2,6-dichlorobenzol)amide]",53
19,"C=CCN1C(=O)C(CCSC)NC12CCN(S(=O)(=O)c1ccc3c(c1)CN(C(=O)C(F)(F)F)CC3)CC2 (centres unmarked) [Example 78, 1-Allyl-3-(2-methylsulfanylethyl)-8-[2-(2,2,2-trifluoroacetyl)-1,2,3,4-tetrahydroisoquinolin-7-sulfonyl]-1,4,8-triazaspiro[4,5]decan-2-one]",32
20,"COC(=O)c1ccc(CN2C(=O)C(C(C)C)NC23CCN(C(=S)NCc2ccc(Cl)cc2)CC3)cc1 (centres unmarked) [Example 191, Methyl 4-[8-(4-chlorobenzylthiocarbamoyl)-3-isopropyl-2-oxo-1,4,8-triazaspiro[4,5]dec-1-ylmethyl]-benzoate]",74
21,"CN1C(=O)C(Cc2ccccc2)NC12CCN(C(=S)NCc1cc(F)ccc1F)CC2 (centres unmarked) [Example 118, 3-Benzyl-1-methyl-2-oxo-1,4,8-triazaspiro[4,5]decan-8-thiocarboxylic acid (2,5-difluorobenzol)amide]",42
22,"COC(=O)c1ccc(CN2C(=O)C(C(C)C)NC23CCN(C(=O)NCc2ccc(Cl)c(Cl)c2)CC3)cc1 (centres unmarked) [Example 232, Methyl 4-[8-(3,4-dichlorobenzylcarbamoyl)-3-isopropyl-2-oxo-1,4,8-triazaspiro[4,5]dec-1-ylmethyl]-benzoate]",55
23,"Cc1ccc(S(=O)(=O)N2CCC3(CC2)NC(C(C)C)C(=O)N3CCOc2ccccc2)cc1 (centres unmarked) [Example 21, 3-Isopropyl-1-(2-phenoxy-ethyl)-8-(toluol-4-sulfonyl)-1,4,8-triazaspiro[4,5]decan-2-one]",54
24,"1-Butyl-3-isopropyl-2-oxo-1,4,8-triazaspiro[4,5]decan-8-thiocarboxylic acid (3-chlorobenzol)amide [Example 142]",63
25,"C=CCN1C(=O)C(C(C)C)NC12CCN(S(=O)(=O)c1c(C)cc(C)cc1C)CC2 (centres unmarked) [Example 70, 1-Allyl-3-isopropyl-8-(2,4,6-trimethylbenzolsulfonyl)-1,4,8-triazaspiro[4,5]decan-2-one]",60
26,"1-Allyl-3-isopropyl-2-oxo-1,4,8-triazaspiro[4,5]decan-8-thiocarboxylic acid (3,5-dichlorobenzol)amide [Example 180]",54
27,"CC(C)C1NC2(CCN(S(=O)(=O)c3ccc(F)c(Cl)c3)CC2)N(CCOc2ccccc2)C1=O (centres unmarked) [Example 17, 8-(3-Chloro-4-fluorobenzolsulfonyl)-3-isopropyl-1-(2-phenoxy-ethyl)-1,4,8-triazaspiro[4,5]decan-2-one]",41
28,"Methyl 4-[8-(2,6-dichlorobenzolthiocarbamoyl)-3-isopropyl-2-oxo-1,4,8-triazaspiro[4,5]dec-1-ylmethyl]-benzoate [Example 135]",38
29,"CSCCC1NC2(CCN(C(=S)NCc3cc(F)ccc3F)CC2)N(C)C1=O (centres unmarked) [Example 138, 1-Methyl-3-(2-methylsulfanylethyl)-2-oxo-1,4,8-triazaspiro[4,5]decan-8-thiocarboxylic acid (2,5-difluorobenzol)amide]",34
